These are literature values, as cited in patent publication US20070275008A1, “Synergistic Diabetic Phyto-Nutraceutical Composition” (priority 2006, published 2007).

Series [1] concerns hepatic toxicity induced by paracetamol, prednisolone and bromobenzene. Particulars: mice; pre-treatment during ten days.
Series [2] deals with bacterial resistance mechanism against the berberine antimicrobial. The following applies: in vitro; in the presence of 5′-MHC.

Turning to `COc1cc(/C=C/C(=O)[O-])ccc1O.[Na+]` [sodium ferulate], in series [1], the “hepatic toxicity induced by paracetamol, prednisolone and bromobenzene” value is “improved the hepatic toxicity”.
For `COc1cc([C@H]2Oc3cc(-c4cc(=O)c5c(O)cc(O)cc5o4)cc(OC)c3O[C@@H]2CO)ccc1O` (racemic) [5′-MHC, 5′-methoxyhydnocarpin], in series [2], the “accumulation of berberine in the cells” value is recorded as “strong increase of accumulation of berberine in the cells”.
